Here are results for 8 compounds from patent US5336763A, “Trisazo dye and dye composition containing the same” (Orient Chemical Industries, Ltd., priority 1992, dated 1994).

Like-named read-outs stand apart in the source and are kept apart here.

The test system of the series is strains TA98. In kind it is cell-based. Particulars: for AMES evaluation: strains TA98. The method, then: Regarding various specimen solutions respectively containing trisazo dyes obtained in Examples 1 to 11 to the present invention and dyes of Comparative Examples 1 to 3, the number of mutant colonies was determined using strains TA98. 2. When the ratio is less than 2, it is "negative" and, when the ratio is more than 2, it is "positive", and the results are shown in Table. 1.

Turning to `CCC(C)c1ccc(N=Nc2c(S(=O)(=O)O)cc3cc(S(=O)(=O)O)c(N=Nc4ccc(Oc5ccc(Oc6ccc(N=Nc7ccc(O)cc7O)cc6)cc5)cc4)c(N)c3c2O)cc1` (stereo not shown) [Ex. 6], the AMES evaluation result is given as “Negative (When the ratio is less than 2, it is "negative")”. Also, the “Ames test: ratio of number of colonies to control” value (“Ames test: ratio” for short) (20 μg/plate, with S-9) turned out to be 1.01. The “Ames test: ratio” value (20 μg/plate, without S-9) was determined as 1.01. Moreover, for the setting “78 μg/plate, with S-9”, the “Ames test: ratio” value worked out at 1.00. In addition, the “Ames test: ratio” value (78 μg/plate, without S-9) is on record as 1.04. Where the note is “313 μg/plate, with S-9”, the “Ames test: ratio” value turned out to be 0.98. For the same compound, where the note is “313 μg/plate, without S-9”, the “Ames test: ratio” value came out at 1.16. Also, where the note is “1250 μg/plate, with S-9”, the “Ames test: ratio” value is 0.84. Also, the “Ames test: ratio” value (1250 μg/plate, without S-9) was 0.97. Moreover, the “Ames test: ratio” value (5000 μg/plate, with S-9) was found to be 0.84. For the same compound, the “Ames test: ratio” value (5000 μg/plate, without S-9) was found to be 0.91.
As for `Nc1ccc(N=Nc2ccc(S(=O)(=O)c3ccc(N=Nc4c(S(=O)(=O)O)cc5cc(S(=O)(=O)O)c(N=Nc6ccccc6)c(O)c5c4N)cc3)cc2)c(O)c1` [compound 2, reference compound], the AMES evaluation entry is on record as “Positive (when the ratio is more than 2, it is "positive")”. Besides, for the setting “20 μg/plate, with S-9”, the “Ames test: ratio” value was determined as 5.26. Moreover, the “Ames test: ratio” value (20 μg/plate, without S-9) amounted to 1.10. For the same compound, where the note is “78 μg/plate, with S-9”, the “Ames test: ratio” value was 26.3. The “Ames test: ratio” value (78 μg/plate, without S-9) came to 1.52. The “Ames test: ratio” value (313 μg/plate, with S-9) is given as 9.11. The “Ames test: ratio” value (313 μg/plate, without S-9) amounted to 1.29. Also, the “Ames test: ratio” value (1250 μg/plate, with S-9) came out at 1.23. Besides, the “Ames test: ratio” value (1250 μg/plate, without S-9) amounted to 1.38. In addition, the “Ames test: ratio” value (5000 μg/plate, with S-9) came to 1.61. In addition, the “Ames test: ratio” value (5000 μg/plate, without S-9) is reported as 3.38.
As for `Nc1ccc(N=Nc2ccc(Oc3ccc(Oc4ccc(N=Nc5c(S(=O)(=O)O)cc6cc(S(=O)(=O)O)c(N=Nc7ccc(S(=O)(=O)O)cc7)c(O)c6c5N)cc4)cc3)cc2)c(O)c1` [Ex. 8], the AMES evaluation entry is “Negative (When the ratio is less than 2, it is "negative")”. For the same compound, where the note is “20 μg/plate, with S-9”, the “Ames test: ratio” value worked out at 0.94. Further, under “20 μg/plate, without S-9”, the “Ames test: ratio” value was 1.05. In addition, the “Ames test: ratio” value (78 μg/plate, with S-9) came out at 0.92. The “Ames test: ratio” value (78 μg/plate, without S-9) is on record as 1.08. Moreover, the “Ames test: ratio” value (313 μg/plate, with S-9) is 0.92. Besides, the “Ames test: ratio” value (313 μg/plate, without S-9) is on record as 0.93. Also, under “1250 μg/plate, with S-9”, the “Ames test: ratio” value was 0.93. Also, the “Ames test: ratio” value (1250 μg/plate, without S-9) is on record as 1.03. Moreover, under “5000 μg/plate, with S-9”, the “Ames test: ratio” value worked out at 1.03. Further, for the setting “5000 μg/plate, without S-9”, the “Ames test: ratio” value was determined as 1.12.
Turning to `Cc1ccccc1N=Nc1c(S(=O)(=O)O)cc2cc(S(=O)(=O)O)c(N=Nc3ccc(Oc4ccc(Oc5ccc(N=Nc6ccc(O)cc6O)cc5)cc4)cc3)c(N)c2c1O` [Ex. 7], the AMES evaluation entry was “Negative (When the ratio is less than 2, it is "negative")”. In addition, the “Ames test: ratio” value (20 μg/plate, with S-9) is given as 0.94. Also, the “Ames test: ratio” value (20 μg/plate, without S-9) is given as 0.95. Also, the “Ames test: ratio” value (78 μg/plate, with S-9) was found to be 0.89. Under “78 μg/plate, without S-9”, the “Ames test: ratio” value is 1.00. Further, the “Ames test: ratio” value (313 μg/plate, with S-9) came out at 1.00. The “Ames test: ratio” value (313 μg/plate, without S-9) came out at 0.80. In addition, for the setting “1250 μg/plate, with S-9”, the “Ames test: ratio” value is given as 1.05. Under “1250 μg/plate, without S-9”, the “Ames test: ratio” value was 0.80. Moreover, the “Ames test: ratio” value (5000 μg/plate, with S-9) stood at 1.05. The “Ames test: ratio” value (5000 μg/plate, without S-9) is given as 1.00.
As for `Nc1ccc2c(O)c(N=Nc3ccccc3)c(S(=O)(=O)O)cc2c1N=Nc1ccc(Oc2ccc(Oc3ccc(N=Nc4ccc(O)cc4O)cc3)cc2)cc1` [Ex. 11], the AMES evaluation entry was “Negative (When the ratio is less than 2, it is "negative")”. Besides, for the setting “20 μg/plate, with S-9”, the “Ames test: ratio” value was determined as 1.25. The “Ames test: ratio” value (20 μg/plate, without S-9) was found to be 0.96. Further, the “Ames test: ratio” value (78 μg/plate, with S-9) is listed as 1.64. In addition, the “Ames test: ratio” value (78 μg/plate, without S-9) came to 1.00. In addition, under “313 μg/plate, with S-9”, the “Ames test: ratio” value stood at 1.34. Besides, under “313 μg/plate, without S-9”, the “Ames test: ratio” value was determined as 0.81. The “Ames test: ratio” value (1250 μg/plate, with S-9) amounted to 0.64. The “Ames test: ratio” value (1250 μg/plate, without S-9) was 1.04. Besides, the “Ames test: ratio” value (5000 μg/plate, with S-9) is listed as 1.07. The “Ames test: ratio” value (5000 μg/plate, without S-9) worked out at 1.35.
As for `Nc1c(N=Nc2ccc(Oc3cccc(Oc4ccc(N=Nc5ccc(O)cc5O)cc4)c3)cc2)c(S(=O)(=O)O)cc2cc(S(=O)(=O)O)c(N=Nc3ccccc3)c(O)c12` [Ex. 2], the AMES evaluation result is on record as “Negative (When the ratio is less than 2, it is "negative")”. Further, under “20 μg/plate, with S-9”, the “Ames test: ratio” value stood at 1.34. Further, the “Ames test: ratio” value (20 μg/plate, without S-9) is on record as 1.07. For the same compound, the “Ames test: ratio” value (78 μg/plate, with S-9) turned out to be 1.19. Besides, under “78 μg/plate, without S-9”, the “Ames test: ratio” value is recorded as 1.20. Also, the “Ames test: ratio” value (313 μg/plate, with S-9) is 1.39. Further, the “Ames test: ratio” value (313 μg/plate, without S-9) turned out to be 1.02. Further, the “Ames test: ratio” value (1250 μg/plate, with S-9) amounted to 1.28. Further, where the note is “1250 μg/plate, without S-9”, the “Ames test: ratio” value amounted to 1.16. For the same compound, the “Ames test: ratio” value (5000 μg/plate, with S-9) came to 1.27. The “Ames test: ratio” value (5000 μg/plate, without S-9) is reported as 1.28.
Consider `Nc1ccc(N=Nc2ccc(Oc3ccc(Oc4ccc(N=Nc5c(S(=O)(=O)O)cc6cc(S(=O)(=O)O)c(N=Nc7ccccc7)c(O)c6c5N)cc4)cc3)cc2)c(O)c1` [Ex. 4], for which the AMES evaluation result was “Negative (When the ratio is less than 2, it is "negative")”. Besides, under “20 μg/plate, with S-9”, the “Ames test: ratio” value came out at 1.04. Besides, where the note is “20 μg/plate, without S-9”, the “Ames test: ratio” value was determined as 0.88. Also, the “Ames test: ratio” value (78 μg/plate, with S-9) turned out to be 1.23. Also, for the setting “78 μg/plate, without S-9”, the “Ames test: ratio” value worked out at 0.79. Further, the “Ames test: ratio” value (313 μg/plate, with S-9) is listed as 0.99. Under “313 μg/plate, without S-9”, the “Ames test: ratio” value stood at 0.96. For the same compound, the “Ames test: ratio” value (1250 μg/plate, with S-9) came to 0.88. Further, for the setting “1250 μg/plate, without S-9”, the “Ames test: ratio” value was 1.15. Moreover, where the note is “5000 μg/plate, with S-9”, the “Ames test: ratio” value is listed as 0.90. In addition, under “5000 μg/plate, without S-9”, the “Ames test: ratio” value is on record as 0.92.
Regarding `Nc1ccc(N=Nc2ccc(Oc3cccc(Oc4ccc(N=Nc5c(S(=O)(=O)O)cc6cc(S(=O)(=O)O)c(N=Nc7ccccc7)c(O)c6c5N)cc4)c3)cc2)c(O)c1` [Ex. 1], the AMES evaluation result is recorded as “Negative (When the ratio is less than 2, it is "negative")”. For the same compound, the “Ames test: ratio” value (20 μg/plate, with S-9) came to 1.13. Further, the “Ames test: ratio” value (20 μg/plate, without S-9) is on record as 0.76. The “Ames test: ratio” value (78 μg/plate, with S-9) was 0.94. The “Ames test: ratio” value (78 μg/plate, without S-9) is on record as 0.86. Also, where the note is “313 μg/plate, with S-9”, the “Ames test: ratio” value is given as 1.06. In addition, the “Ames test: ratio” value (313 μg/plate, without S-9) amounted to 0.86. Also, the “Ames test: ratio” value (1250 μg/plate, with S-9) was determined as 0.53. Also, for the setting “1250 μg/plate, without S-9”, the “Ames test: ratio” value stood at 0.76. In addition, the “Ames test: ratio” value (5000 μg/plate, with S-9) came to 0.59. Besides, where the note is “5000 μg/plate, without S-9”, the “Ames test: ratio” value is given as 0.71.
